“Also recorded” adds a separate entry of the source. Read-outs that look alike come from different tables or passages of the source.
Legend:
[1] = test system: visceral pain writhing responses; assay: Visceral pain, acetic acid induced writhing responses; assay type: in vivo, Male ICR mice; conditions: single dose 2 mg/kg i.v., compared to untreated group
[2] = test system: carrageenan induced inflammatory pain and paw edema; assay: Inflammatory pain and paw edema induced by carrageenan; assay type: in vivo, Male Sprague Dawley rats; conditions: for Percent Inhibition of Inflammatory Pain Responses, Edema / Percent Inhibition of Inflammatory Pain Responses, ΔForce / Percent Inhibition of Inflammatory Pain Responses, ΔLT / inhibition in vivo at 10 mg/kg: 10 mg/kg i.p.; for inhibition in vivo at 10 mg/kg: Rattus norvegicus, ip
How it was run: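 Male Sprague Dawley rats (~200 g) received 0.1 ml 2% λ-carrageenan subplantar in the right paw; compounds given i.p. at 3, 10 or 20 mg/kg (some p.o.) immediately after. Thermal (Hargreaves) latency, mechanical threshold, paw thickness and volume measured at 0 and 3 h; values are inter-paw differences ([…], ΔForce), volume as % of vehicle.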

[3] = test system: mechanical allodyna after chronic constriction of the sciatic nerve; assay: Neuropathic pain, chronic constriction of the sciatic nerve (CCI); assay type: in vivo, Male Sprague Dawley rats; conditions: both 0.25 and 2 mg/kg i.v.
Experimental: The analgesic activity of compounds of the invention was assessed in a chronic constriction induced (CCI) model of neuropathic pain. […] The development of mechanical allodyna was monitored using a Dynamic Plantar Sesthesiomether as described in Example 18. This apparatus is an automated version of the classical von Frey filaments' test.
Pre-surgery baseline values were ascertained as the mean of 2 pre-surgery values. Once the baseline values are established, the animals were surgically prepared by constricting the right sciatic nerve with 4-0 chromic cat gut loose ligatures. On day 11 post-operation, the animals that have developed mechanical allodyna were arbitrarily allocated to the various treatment groups based on the pre-surgery values.
The design was randomized, performed in a masked fashion as to whether drug or vehicle is being given. Male Sprague Dawley rats (average body weight 240 g, Harlan, Israel), were allowed to acclimatize to the behavioral testing equipment prior to testing. On the testing day, the animals, at least six per treatment group, were administered the compounds and controls at a volume dosage of 5 ml/kg. Fifteen minutes later, the mechanical stimulus was applied and the force, measured in grams, causing a withdrawal response for each of the ipsilateral and contralateral hind paws was evaluated.
Results are expressed as mean±SEM for each treatment group and the differences among those groups are analyzed by analysis of variance (ANOVA) followed by post-hoc Tukey's test. A value of p<0.05 is considered to be statistically significant. Thereafter the difference in the force to be applied to the injured paw as compared to the normal paw was calculated. Δforce, expressed in grams, was measured at baseline and 1 and 4.5 hours after treatment.

[4] = test system: visceral pain writhing responses; assay: Tolerance: repeated administration in the model of Visceral Pain; assay type: in vivo, mice; conditions: tested day 11 at 2 mg/kg i.v.
Experimental: Male ICR mice (average body weight 25 g, Harlan, Israel) were pretreated by i.v. injection at volume dose of 5 ml/kg of vehicle, control and test compounds at various doses. Other routes of administration were tested for selected compounds including i.m. or s.c. injections at volume dose of 2.5 ml/kg and p.o. gavage at volume dose of 5 ml/kg. Compounds were dissolved in CREMOPHOR®:Ethanol and diluted 1:20 in saline prior to injection or gavage. Compounds administered i.v. were injected fifteen minutes before pain induction, whereas compounds administered i.m., s.c. or p.o. were supplied thirty minutes before pain induction, unless otherwise indicated. Each treatment group, except for controls comprising at least 30 animals, was composed of at least 6 animals. Fifteen or thirty minutes after drug administration, depending on the route of administration, the mice were injected i.p. with 10 ml/kg of 0.6% acetic acid and the number of visceral pain related behaviors (writhing movements globally defined as WR, i.e. stretching, contractions of the abdomen accompanied by an elongation of the body and extension of the hind limbs) was counted over a period of 5 minutes, starting 5 minutes after the acetic acid administration. These visceral pain related behaviors were globally defined as writhing responses (WR). The results are expressed as mean number of writhing responses ±SEM. Data were analyzed using analysis of variance (ANOVA) followed by post-hoc Fisher test.
Briefly compounds of the invention were administered at 10 mg/kg i.p. daily for 10 days and their analgesic activity was tested on day 11 as described in Example 17 (namely at 2 mg/kg i.v.). […] Each treatment group comprised 10 animals.

IL-1β = assay: Cytokine secretion into blood circulation in LPS injected mice, IL-1β; assay type: in vivo, Balb/C female mice; conditions: 2 mg/kg i.v., LPS 3 mg/kg i.p., plasma 90 minutes after LPS
Experimental: (§1) Balb/C female mice (average body weight 20 g, Harlan, Israel) were injected i.v. at a volume dosage of 5 ml/kg with either vehicle or test compounds at a dose of 2 mg/kg. Each treatment group comprised at least 9 animals. Immediately after compound or control administration, the mice were injected i.p. with 3 mg/kg LPS (E. coli 055:B5, Calbiochem). Ninety minutes after LPS induction, blood samples were collected into heparanized test tubes. Plasma was separated by centrifugation (10,000 rpm for 5 minutes at RT) and stored at −20° C. until assayed. The level of the inflammatory mediator under study, IL-1β, IL-6, IL-10 or TNF-α, was assayed by ELISA techniques.
(§2) The technique used to quantify the amount of a given protein in a liquid sample, either tissue culture supernatant or body fluid, is based on Enzyme Linked ImmunoSorbent Assay (ELISA) methodology. Either commercially available or established in house, the assay is based on the capture of the protein of interest by specific antibodies bound to the bottom of an ELISA plate well. Unbound material is washed away, the captured protein is then exposed to a secondary antibody generally labeled with horseradish peroxidase (HRP) or alkaline phosphatase (ALP). Again the unbound material is washed away, and the samples are then incubated with the appropriate substrate yielding a colorimetric reaction. The reaction is stopped and reading is performed in a spectrophotometer at the appropriate wavelength. Samples are tested at least in duplicate and the appropriate standard curve, consisting of serial dilutions of the recombinant target protein, is incorporated on each plate. The concentration of the protein in the sample is calculated from the standard curve.
(§3) The results are expressed as percent inhibition of secretion, taking into account the maximal cytokine concentration in vehicle “treated” animals and the baseline level in naïve animals. […] Inhibition above 50% was considered highly significant.

IL-6 = assay: Cytokine secretion into blood circulation in LPS injected mice, IL-6; assay type: in vivo, Balb/C female mice; conditions: 2 mg/kg i.v., LPS 3 mg/kg i.p., plasma 90 minutes after LPS
Experimental: as §1, §2, §3

IL-10 = assay: Cytokine secretion into blood circulation in LPS injected mice, IL-10; assay type: in vivo, Balb/C female mice; conditions: 2 mg/kg i.v., LPS 3 mg/kg i.p., plasma 90 minutes after LPS
Experimental: as §1, §2, §3

TNF-α = assay: Cytokine secretion into blood circulation in LPS injected mice, TNF-α; assay type: in vivo, Balb/C female mice; conditions: 2 mg/kg i.v., LPS 3 mg/kg i.p., plasma 90 minutes after LPS
Experimental: as §1, §2, §3

[5] = test system: CB1 related cannabimimetic activity; assay: Safety: body temperature, catalepsy, spontaneous locomotor activity, elevated plus maze, sensitivity to touch; assay type: in vivo, ICR male mice; conditions: 2 mg/kg i.v.
Experimental: In the present study, impact of compounds of the invention on the central nervous system was measured by monitoring the body temperature, catalepsy and spontaneous locomotor activity of rodents. These activities are part of the Tetrad assays which are indicative, if all parameters are affected, of CB1 mediated activity. In addition, lack of CNS psychomimetic effect was assessed in the elevated plus maze model. Finally, sensitivity to touch was determined in order to evaluate peripheral CB1 related activity.
ICR male mice (average body weight 25 g, Harlan, Israel) were administered the compounds of the invention i.v. at a dose of 2 mg/kg and at a volume dose of 5 ml/kg. The psychoactive cannabinoid HU-210 was used as positive control at the 100-fold lower dose of 0.02 mg/kg i.v. The following measurements were made starting 15 minutes after compound administration. All tests were completed for each animal within approximately 10 minutes. Rectal temperature was monitored using a thermistor probe (YSI model 400, USA). Spontaneous locomotion was assessed using the open field methodology. The number of squares crossed by the animals were recorded and analyzed during a period of three minutes. At the end of the open field test, the animals were tested for catalepsy symptoms. This was carried out by gently forcing the animal to stand on its hind paws when its front paws are holding on an elevated beam. The time for the animal to step down of the beam was measured in seconds. A normal animal withdraws the beam immediately whereas cataleptic animal tend to stay on the beam. The longer the animal stays leaning on the beam, the more cataleptic the animal is. The behavior of the animals was then assessed in the elevated plus maze. The elevated plus maze consists of two open arms and two arms that are enclosed by high walls (arms 30×10 cm, wall height 20 cm). The elevated plus maze is usually elevated 80 cm above the floor. The mouse is placed on the maze head facing an open arm, and the time spent in the different compartments of the maze (open arms, closed arms and central area) are measured for the next 5 minutes. Results are expressed as percent of the time spent in the open arms, normal animals preferring to stay in the closed arms of the maze. Finally, animals were gently touched by an observer blinded for the treatment group and their sensitivity scored according to the following scale: 0 not sensitive, 1 sensitive and 2 highly sensitive. Results are expressed as average±SEM. At the end of the study, the animals were euthanized.

[6] = 3 hours after carrageenan, reduction in paw swelling

CCCCCCC(C)(C)c1cc(OCC(=O)O)c2c(c1)OC1C(O)CCCCC21 (stereo not drawn) [Compound C7S-10, [2-(1,1-dimethylheptyl)-9-hydroxy-5,6,7,8,9,9a-hexahydro-4bH-10-oxa-benzo[α]azulen-4-yloxy]-acetic acid]
Percent Inhibition of Visceral Pain Writhing Responses [1]: 53%
Percent Inhibition of Inflammatory Pain Responses, Edema [2, 6]: 41%
Percent Inhibition of Inflammatory Pain Responses, ΔForce ([2]; 3 hours, mechanical stimulus): 25%
Percent Inhibition of Inflammatory Pain Responses, ΔLT ([2]; 3 hours, thermal stimulus): 61%
inhibition of paw swelling ([2]; 30 mg/kg p.o.): 60%
pain response (Δforce) ([3]; last time point (4.5 hours)): totally abrogated the pain response
reduction of pain response (Δforce) ([3]; one hour after administration): 70-80%

CN1CC[C@]23c4c5ccc(O)c4O[C@H]2[C@@H](O)C=C[C@H]3[C@H]1C5 [morphine, reference compound]
Percent Inhibition of Visceral Pain Writhing Responses ([1]; 2 mg/kg): eradicated the pain response; also recorded: totally eliminated the pain response
writhing responses on day 11 ([4]; repeated administration daily for 10 days (10 mg/kg i.p.), vehicle 29.75±1.09): 9.60±2.85
reduction in pain response after repeated administration ([4]; repeated administration daily for 10 days): 68%

CCCCCCC(C)(C)c1cc(O)c2c(c1)OC1CCCCCC21 (stereo not drawn) [Compound C7S-1, 2-(1,1-dimethylheptyl)-5,6,7,8,9,9a-hexahydro-4bH-10-oxa-benzo[α]azulen-4-ol]
Inhibition of cytokine secretion into blood circulation, IL-1β (IL-1β): NO (NO indicates that the compound tested did not significantly affect the level of cytokine in plasma of LPS injected mice and that its activity is comparable to vehicle, within ±20% from this control)
Inhibition of cytokine secretion into blood circulation, IL-6 (IL-6): 82%
Inhibition of cytokine secretion into blood circulation, IL-10 (IL-10): 82%
Inhibition of cytokine secretion into blood circulation, TNF-α (TNF-α): NO (NO indicates that the compound tested did not significantly affect the level of cytokine in plasma of LPS injected mice and that its activity is comparable to vehicle, within ±20% from this control)
Percent Inhibition of Visceral Pain Writhing Responses [1]: 76%
Percent Inhibition of Inflammatory Pain Responses, Edema [2, 6]: 60%
Percent Inhibition of Inflammatory Pain Responses, ΔForce ([2]; 3 hours, mechanical stimulus): 13%
Percent Inhibition of Inflammatory Pain Responses, ΔLT ([2]; 3 hours, thermal stimulus): 0%
adverse cannabimimetic activities in any of the parameters monitored [5]: None
decrease of rectal temperature ([5]; non-significant): about 1.2 °C
rectal temperature ([5]; vehicle 38.88±0.11° C.): 37.45±0.39 °C

CCCCCCC(C)(C)c1cc(O)c2c(c1)OC1C(O)CCCC21 (stereo not drawn) [Compound C6S-5, 3-(1,1-Dimethylheptyl)-5a,6,7,8,9,9a-hexahydro-dibenzofuran-1,6-diol]
Inhibition of cytokine secretion into blood circulation, IL-1β (IL-1β): NO (NO indicates that the compound tested did not significantly affect the level of cytokine in plasma of LPS injected mice and that its activity is comparable to vehicle, within ±20% from this control)
Inhibition of cytokine secretion into blood circulation, IL-6 (IL-6): 85%
Inhibition of cytokine secretion into blood circulation, IL-10 (IL-10): 84%
Inhibition of cytokine secretion into blood circulation, TNF-α (TNF-α): NO (NO indicates that the compound tested did not significantly affect the level of cytokine in plasma of LPS injected mice and that its activity is comparable to vehicle, within ±20% from this control)
inhibition in vivo at 2 mg/kg ([1]; Mus musculus, iv, read-out: Percent Inhibition of Visceral Pain Writhing Responses): 35%
inhibition in vivo at 10 mg/kg ([2]; 3 hours after carrageenan, reduction in paw swelling, read-out: Percent Inhibition of Inflammatory Pain Responses, Edema): 56%
inhibition in vivo at 10 mg/kg ([2]; 3 hours, mechanical stimulus, read-out: Percent Inhibition of Inflammatory Pain Responses, ΔForce): 34%
inhibition in vivo at 10 mg/kg ([2]; 3 hours, thermal stimulus, read-out: Percent Inhibition of Inflammatory Pain Responses, ΔLT): 61%
adverse cannabimimetic activities in any of the parameters monitored [5]: None

Source: patent publication US20090054376A1, “BENZOFURAN DERIVATIVES WITH THERAPEUTIC ACTIVITIES” (Pharmos Corporation, priority 2005, published 2009)
